Reference: patent US10770169B2, “Method of providing a treatment to a subject based on a dynamic pathway map” (THE REGENTS OF THE UNIVERSITY OF CALIFORNIA, priority 2010, dated 2020)
Read-outs that look alike come from different tables or passages of the source.

System: panel of 55 breast cancer cell lines
Assay: Cell growth inhibition assay (Cell Titer Glo, 72 h, 9 doses; GI50, TGI, LC50)
Format: cell-based, human
Conditions: Homo sapiens, read-out: GI50 (converted)

COc1cccc2c1C(=O)c1c(O)c3c(c(O)c1C2=O)C[C@@](O)(C(=O)CO)C[C@@H]3O[C@H]1C[C@H](N)[C@@H](O)[C@H](C)O1 [Epirubicin]
GI50 (600MPE cell line, censored GI50 values): 347 nM | GI50 (AU565, AU565 cell line, censored GI50 values): 145 nM | GI50 (AU565, cell line AU565): 145 nM | GI50 (BT-474, BT474 cell line, censored GI50 values): 6760 nM | GI50 (BT-474, cell line BT474): 6760 nM | GI50 (BT-483, BT483 cell line, censored GI50 values): 166 nM | GI50 (BT-483, cell line BT483): 166 nM | GI50 (BT-549, BT549 cell line, censored GI50 values): 204 nM | GI50 (BT-549, cell line BT549): 204 nM | GI50 (HCC38, HCC38 cell line, censored GI50 values): 93.3 nM | GI50 (HCC38, cell line HCC38): 93.3 nM | GI50 (HCC70, HCC70 cell line, censored GI50 values): 417 nM | GI50 (HCC70, cell line HCC70): 417 nM | GI50 (HCC202, HCC202 cell line, censored GI50 values): 603 nM | GI50 (HCC202, cell line HCC202): 603 nM | GI50 (HCC1143, HCC1143 cell line, censored GI50 values): 288 nM | GI50 (HCC1143, cell line HCC1143): 288 nM | GI50 (HCC1187, HCC1187 cell line, censored GI50 values): 1000 nM | GI50 (HCC1187, cell line HCC1187): 1000 nM | GI50 (HCC1395, HCC1395 cell line, censored GI50 values): 447 nM | GI50 (HCC1395, cell line HCC1395): 447 nM | GI50 (HCC1419, HCC1419 cell line, censored GI50 values): 708 nM | GI50 (HCC1419, cell line HCC1419): 708 nM | GI50 (HCC1428, HCC1428 cell line, censored GI50 values): 1350 nM | GI50 (HCC1428, cell line HCC1428): 1350 nM | GI50 (HCC1500, HCC1500 cell line, censored GI50 values): 245 nM | GI50 (HCC1500, cell line HCC1500): 245 nM | GI50 (HCC1806, HCC1806 cell line, censored GI50 values): 166 nM | GI50 (HCC1806, cell line HCC1806): 166 nM | GI50 (HCC1937, HCC1937 cell line, censored GI50 values): 204 nM | GI50 (HCC1937, cell line HCC1937): 204 nM | GI50 (HCC1954, HCC1954 cell line, censored GI50 values): 200 nM | GI50 (HCC1954, cell line HCC1954): 200 nM | GI50 (HCC2185 cell line, censored GI50 values): 126 nM | GI50 (HCC3153 cell line, censored GI50 values): 646 nM | GI50 (LY2 cell line, censored GI50 values): 214 nM | GI50 (MCF7, MCF7 cell line, censored GI50 values): 355 nM | GI50 (MCF7, cell line MCF7): 355 nM | GI50 (MDA-MB-134-VI, MDAMB134VI cell line, censored GI50 values): 1050 nM | GI50 (MDA-MB-157, MDAMB157 cell line, censored GI50 values): 550 nM | GI50 (MDA-MB-157, cell line MDAMB157): 550 nM | GI50 (MDA-MB-175-VII, MDAMB175VII cell line, censored GI50 values): 100 nM | GI50 (MDA-MB-231, MDAMB231 cell line, censored GI50 values): 269 nM | GI50 (MDA-MB-231, cell line MDAMB231): 269 nM | GI50 (MDA-MB-361, MDAMB361 cell line, censored GI50 values): 224 nM | GI50 (MDA-MB-361, cell line MDAMB361): 224 nM | GI50 (MDA-MB-415, MDAMB415 cell line, censored GI50 values): 263 nM | GI50 (MDA-MB-415, cell line MDAMB415): 263 nM | GI50 (MDA-MB-436, MDAMB436 cell line, censored GI50 values): 708 nM | GI50 (MDA-MB-436, cell line MDAMB436): 708 nM | GI50 (MDA-MB-453, MDAMB453 cell line, censored GI50 values): 224 nM | GI50 (MDA-MB-453, cell line MDAMB453): 224 nM | GI50 (MDA-MB-468, MDAMB468 cell line, censored GI50 values): 692 nM | GI50 (MDA-MB-468, cell line MDAMB468): 692 nM | GI50 (SUM52PE, SUM52PE cell line, censored GI50 values): 295 nM | GI50 (SUM52PE, cell line SUM52PE): 295 nM | GI50 (SUM149PT, SUM149PT cell line, censored GI50 values): 219 nM | GI50 (SUM149PT, cell line SUM149PT): 219 nM | GI50 (SUM185PE, SUM185PE cell line, censored GI50 values): 407 nM | GI50 (SUM185PE, cell line SUM185PE): 407 nM | GI50 (SUM1315MO2, SUM1315MO2 cell line, censored GI50 values): 36.3 nM | GI50 (SUM-159-PT, SUM159PT cell line, censored GI50 values): 141 nM | GI50 (SUM-159-PT, cell line SUM159PT): 141 nM | GI50 (UACC-812, UACC812 cell line, censored GI50 values): 251 nM | GI50 (UACC-812, cell line UACC812): 251 nM | GI50 (UACC-893, UACC893 cell line, censored GI50 values): 776 nM | GI50 (UACC-893, cell line UACC893): 776 nM | GI50 (ZR-75-1, ZR751 cell line, censored GI50 values): 251 nM | GI50 (ZR-75-1, cell line ZR751): 251 nM | GI50 (ZR-75B, ZR75B cell line, censored GI50 values): 115 nM | GI50 (ZR-75B, cell line ZR75B): 115 nM | GI50 (cell line 600MPE): 347 nM | GI50 (cell line HCC2185): 126 nM | GI50 (cell line HCC3153): 646 nM | GI50 (cell line LY2): 214 nM | GI50 (cell line MDAMB134V): 1050 nM | GI50 (cell line MDAMB175V): 100 nM | GI50 (cell line SUM1315MO): 36.3 nM
